Structures can show the parent of a compound that is named as a salt.
Target: AKT1 (Homo sapiens (Human), UniProt P31749)
Experiment: Inactive Akt Alpha Screen Assay
Conditions: non *labeled: Akt Alpha Screen assay; read-out: AKT1 biochemical assay, IC50
Procedure: AKT1 activity was assayed using the GSK3-derived biotinylated peptide substrate, crosstide (biotin-[…]), and AlphaScreen™ (Amplified Luminescent Proximity Homogeneous Assay) technology. AKT1 activation was achieved by the addition of the activating kinases PDK1 and MAPKAPK2, lipid vesicles, and ATP. The extent of peptide phosphorylation was determined using a phospho-AKT substrate antibody and acceptor beads conjugated to Protein A and donor beads conjugated to streptavidin that bind to the biotin on the peptide. Excitation of the donor beads converted ambient oxygen to excited singlet oxygen which, when in close proximity to acceptor beads, reacted with acceptor beads resulting in signal amplification. […] The plates were incubated for 30 minutes at room temperature, and then stopped in the dark by the addition of 10 μL stop/detection mixture prepared in assay buffer containing EDTA, AlphaScreen™ Streptavidin Donor and Protein A Acceptor beads, and phospho-AKT substrate antibody for final concentrations of 10 mM EDTA, 500 ng/well of both AlphaScreen™ Streptavidin Donor beads and Protein A Acceptor beads, and phospho-AKT substrate antibody at a final dilution of 1:350. Assay plates were incubated for 90 minutes at room temperature in the dark, and the plates were read on a Perkin Elmer Envision Multilabel plate reader (excitation wavelength: […], emission wavelength: 570 nm). […] Envision Instrument Settings: • Instrument: Perkin Elmer Envision • Plate: 96 well • Program Name: • Excitation: Ex Top • Mirror: General Dual—Slot 2 • Excitation Filter: CFP430 Ex.

Chain of AKT1 (P31749 whole entry): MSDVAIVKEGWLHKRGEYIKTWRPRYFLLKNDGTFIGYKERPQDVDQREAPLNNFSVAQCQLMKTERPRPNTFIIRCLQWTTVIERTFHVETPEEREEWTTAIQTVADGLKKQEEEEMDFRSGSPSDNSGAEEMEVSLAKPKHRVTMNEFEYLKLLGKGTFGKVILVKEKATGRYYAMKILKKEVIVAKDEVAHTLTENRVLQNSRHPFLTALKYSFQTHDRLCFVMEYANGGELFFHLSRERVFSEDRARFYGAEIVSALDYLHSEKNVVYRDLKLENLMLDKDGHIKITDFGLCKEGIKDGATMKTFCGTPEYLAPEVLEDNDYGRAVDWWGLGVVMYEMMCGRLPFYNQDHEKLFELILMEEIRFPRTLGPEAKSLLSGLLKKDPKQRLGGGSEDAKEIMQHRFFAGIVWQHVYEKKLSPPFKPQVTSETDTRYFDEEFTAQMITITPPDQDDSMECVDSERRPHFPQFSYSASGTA

IC50	Structure (SMILES)
2300 nM	O=S(=O)(NC1CCN(Cc2ccc(-c3nnc4n3-c3cccnc3Nc3ccccc3-4)cc2)CC1)c1ccccc1F [Example 147, N-(1-(4-(9H-benzo[f]pyrido[2,3-b][1,2,4]triazolo[4,3-d][1,4]diazepin-3-yl)benzyl)piperidin-4-yl)-2-fluorobenzenesulfonamide]
2800 nM	Cc1ccc(CN2CCN(Cc3ccc(-c4nnc5n4-c4cccnc4Nc4ccccc4-5)cc3)CC2)cc1 [Example 91, 3-(4-((4-(4-methylbenzyl)piperazin-1-yl)methyl)phenyl)-9H-benzo[f]pyrido[2,3-b][1,2,4]triazolo[4,3-d][1,4]diazepine]
2600 nM	NC1(c2ccc(-c3nnc4n3-c3cc(-c5ccccc5)cnc3Nc3ccccc3-4)cc2)CCC1 [Example 230, 1-(4-(6-phenyl-9H-benzo[f]pyrido[2,3-b][1,2,4]triazolo[4,3-d][1,4]diazepin-3-yl)phenyl)cyclobutanamine]
6000 nM	COc1ccc(CCNC(=O)NC2CCN(Cc3ccc(-c4nnc5n4-c4cccnc4Nc4ccccc4-5)cc3)CC2)cc1OC [Example 169, 1-(1-(4-(9H-benzo[f]pyrido[2,3-b][1,2,4]triazolo[4,3-d][1,4]diazepin-3-yl)benzyl)piperidin-4-yl)-3-(3,4-dimethoxyphenethyl)urea]
660 nM	c1ccc(-c2nnc(C3CCN(Cc4ccc(-c5nnc6n5-c5cccnc5Nc5ccccc5-6)cc4)CC3)o2)cc1 [Example 207, 2-(1-(4-(9H-benzo[f]pyrido[2,3-b][1,2,4]triazolo[4,3-d][1,4]diazepin-3-yl)benzyl)piperidin-4-yl)-5-phenyl-1,3,4-oxadiazole]
340 nM	CC(C)(C)CC(=O)Nc1ccc(-c2nnc3n2-c2cccnc2Nc2ccccc2-3)cc1 [Example 36, N-(4-(9H-benzo[f]pyrido[2,3-b][1,2,4]triazolo[4,3-d][1,4]diazepin-3-yl)phenyl)-3,3-dimethylbutanamide]
250 nM	c1ccc(-c2nnc(C3CCN(Cc4ccc(-c5nnc6n5-c5ccccc5Nc5ccccc5-6)cc4)CC3)[nH]2)nc1 [Example 129, 3-(4-((4-(5-(pyridin-2-yl)-4H-1,2,4-triazol-3-yl)piperidin-1-yl)methyl)phenyl)-9H-dibenzo[b,f][1,2,4]triazolo[4,3-d][1,4]diazepine]
1400 nM	COc1ccc(C(=O)N2CCN(Cc3ccc(-c4nnc5n4-c4cccnc4Nc4ccccc4-5)cc3)CC2)cc1 [Example 137, (4-(4-(9H-benzo[f]pyrido[2,3-b][1,2,4]triazolo[4,3-d][1,4]diazepin-3-yl)benzyl)piperazin-1-yl)(4-methoxyphenyl)methanone]
5800 nM	CCCNCc1ccc(-c2nnc3n2-c2cccnc2Nc2ccccc2-3)cc1 [Example 87, N-(4-(9H-benzo[f]pyrido[2,3-b][1,2,4]triazolo[4,3-d][1,4]diazepin-3-yl)benzyl)propan-1-amine]
4800 nM	CCN(CC)C(=O)C1CCCN(Cc2ccc(-c3nnc4n3-c3cccnc3Nc3ccccc3-4)cc2)C1 (centres unmarked) [Example 81, 1-(4-(9H-benzo[f]pyrido[2,3-b][1,2,4]triazolo[4,3-d][1,4]diazepin-3-yl)benzyl)-N,N-diethylpiperidine-3-carboxamide]
520 nM	COc1ccccc1C(=O)Nc1ccc(-c2nnc3n2-c2cccnc2Nc2ccccc2-3)cc1 [Example 41, N-(4-(9H-benzo[f]pyrido[2,3-b][1,2,4]triazolo[4,3-d][1,4]diazepin-3-yl)phenyl)-2-methoxybenzamide]
4900 nM	O=C(c1ccc(F)c(F)c1)N1CCN(Cc2ccc(-c3nnc4n3-c3cccnc3Nc3ccccc3-4)cc2)CC1 [Example 143, (4-(4-(9H-benzo[f]pyrido[2,3-b][1,2,4]triazolo[4,3-d][1,4]diazepin-3-yl)benzyl)piperazin-1-yl)(3,4-difluorophenyl)methanone]
480 nM	Cc1cccc(NC(=O)NCc2ccc(-c3nnc4n3-c3cccnc3Nc3ccccc3-4)cc2)c1 [Example 125, 1-(4-(9H-benzo[f]pyrido[2,3-b][1,2,4]triazolo[4,3-d][1,4]diazepin-3-yl)benzyl)-3-(m-tolyl)urea]
9300 nM	O=C(NC1(c2ccc(-c3nnc4n3-c3ccc(Cl)nc3Nc3ccccc3-4)cc2)CCC1)C(F)(F)F [Example 226, N-(1-(4-(7-chloro-9H-benzo[f]pyrido[2,3-b][1,2,4]triazolo[4,3-d][1,4]diazepin-3-yl)phenyl)cyclobutyl)-2,2,2-trifluoroacetamide]
23000 nM	Fc1ccc(-c2nnc3n2-c2cccnc2Nc2ccccc2-3)cc1 [hydrochloride]
700 nM	Cc1ccccc1NC(=O)NC1CCN(Cc2ccc(-c3nnc4n3-c3cccnc3Nc3ccccc3-4)cc2)CC1 [Example 179, 1-(1-(4-(9H-benzo[f]pyrido[2,3-b][1,2,4]triazolo[4,3-d][1,4]diazepin-3-yl)benzyl)piperidin-4-yl)-3-(o-tolyl)urea]
780 nM	O=C(Nc1ccc(-c2nnc3n2-c2cccnc2Nc2ccccc2-3)cc1)c1ccc(-c2ccccc2)cc1 [Example 61, N-(4-(9H-benzo[f]pyrido[2,3-b][1,2,4]triazolo[4,3-d][1,4]diazepin-3-yl)phenyl)-[1,1′-biphenyl]-4-carboxamide]
140 nM	O=S(=O)(NCc1ccc(-c2nnc3n2-c2cccnc2Nc2ccccc2-3)cc1)c1ccccc1 [Example 101, N-(4-(9H-benzo[f]pyrido[2,3-b][1,2,4]triazolo[4,3-d][1,4]diazepin-3-yl)benzyl)benzenesulfonamide]
160 nM	O=C(Nc1ccc(-c2nnc3n2-c2cccnc2Nc2ccccc2-3)cc1)c1cnc2ccccc2n1 [Example 55, N-(4-(9H-benzo[f]pyrido[2,3-b][1,2,4]triazolo[4,3-d][1,4]diazepin-3-yl)phenyl)quinoxaline-2-carboxamide]
1900 nM	c1ccc(-c2nnc3n2-c2ccccc2Nc2ccccc2-3)cc1 [Example 20, 3-phenyl-9H-dibenzo[b,f][1,2,4]triazolo[4,3-d][1,4]diazepine]
790 nM	O=C(Nc1cccc(F)c1)NC1CCN(Cc2ccc(-c3nnc4n3-c3cccnc3Nc3ccccc3-4)cc2)CC1 [Example 178, 1-(1-(4-(9H-benzo[f]pyrido[2,3-b][1,2,4]triazolo[4,3-d][1,4]diazepin-3-yl)benzyl)piperidin-4-yl)-3-(3-fluorophenyl)urea]
1800 nM	O=S(=O)(Cc1ccccc1)NC1CCN(Cc2ccc(-c3nnc4n3-c3cccnc3Nc3ccccc3-4)cc2)CC1 [Example 152, N-(1-(4-(9H-benzo[f]pyrido[2,3-b][1,2,4]triazolo[4,3-d][1,4]diazepin-3-yl)benzyl)piperidin-4-yl)-1-phenylmethanesulfonamide]

Structure (SMILES)	IC50
OC1(c2ccccc2)CCN(Cc2ccc(-c3nnc4n3-c3cccnc3Nc3ccccc3-4)cc2)CC1 [Example 80, 1-(4-(9H-benzo[f]pyrido[2,3-b][1,2,4]triazolo[4,3-d][1,4]diazepin-3-yl)benzyl)-4-phenylpiperidin-4-ol]	1900 nM
Clc1ccc(-c2nnc3n2-c2cccnc2Nc2ccccc2-3)cc1Cl [Example 13, hydrochloride]	5100 nM
NC1(c2ccc(-c3nnc4n3-c3cccnc3Nc3ccccc3-4)cc2)CCCCC1 [Example 217, 1-(4-(9H-benzo[f]pyrido[2,3-b][1,2,4]triazolo[4,3-d][1,4]diazepin-3-yl)phenyl)cyclohexanamine]	500 nM
Clc1ccc(-c2nnc3n2-c2cccnc2Nc2ccccc2-3)cc1 [Example 9, hydrochloride]	5100 nM
